# Results as given in ChEMBL document CHEMBL2034957, “Synthesis and antitumor evaluation of novel benzo[d]pyrrolo[2,1-b]thiazole derivatives” (Eur J Med Chem, 2012).
# Activity calls are given as the source filed them. The calls are words filed in the database; no cut-off is given here.
# Legend:
# CCRF-CEM [1] = assay: Cytotoxicity against human CCRF-CEM cells after 72 hrs by XTT assay; type: functional, cell-based
# CCRF-CEM [2] = assay: Cytotoxicity against human taxol-resistant CCRF-CEM cells after 72 hrs by XTT assay; type: functional, cell-based
# CCRF-CEM [3] = assay: Cytotoxicity against human vinblastine-resistant CCRF-CEM cells after 72 hrs by XTT assay; type: functional, cell-based
# MX1 [4] = assay: Cytotoxicity against human MX1 cells after 72 hrs by SRB assay; type: functional, cell-based; settings: MX1, 72 h
# HCT-116 = assay: Cytotoxicity against human HCT116 cells after 72 hrs by SRB assay; type: functional, cell-based; settings: HCT-116, 72 h
# [5] = Cytotoxicity against human H1299 cells after 72 hrs by alamar blue assay; type: functional, cell-based; settings: NCI-H1299, 72 h
# PC-3 = assay: Cytotoxicity against human PC3 cells after 72 hrs by alamar blue assay; type: functional, cell-based; settings: PC-3, 72 h
# [6] = Cytotoxicity against human OECM1 cells after 72 hrs by alamar blue assay; type: functional, cell-based; settings: OECM1, 72 h
# [7] = Cytotoxicity against human U87 cells after 72 hrs by alamar blue assay; type: functional, cell-based, U-87MG ATCC; settings: U-87 MG
# MX1 [8] = assay: Antitumor activity against human MX1 cells xenografted in athymic nude mouse assessed as tumor remission at 20 mg/kg, iv administered q2d for 3 days followed by 25 mg/kg, iv q2d for 5 days measured on day 26 post-tumor implantation; type: functional, organism-based
# MX1 [9] = assay: Antitumor activity against human MX1 cells xenografted in athymic nude mouse assessed as tumor remission at 20 mg/kg, iv administered q2d for 3 days followed by 25 mg/kg, iv q2d for 4 days measured on day 26 post-tumor implantation; type: functional, organism-based
# MX1 [10] = assay: Antitumor activity against human MX1 cells xenografted in athymic nude mouse assessed as tumor remission at 20 mg/kg, iv administered q2d for 3 days followed by 25 mg/kg, iv q2d for 4 days measured on day 28 post-tumor implantation; type: functional, organism-based
# Mus musculus = assay: Toxicity in athymic nude mouse assessed as weight loss at 20 mg/kg, iv administered q2d for 3 days followed by 25 mg/kg, iv q2d for 5 days; type: organism-based; settings: in vivo
# [11] = Cell cycle arrest in human H1299 cells assessed as G2/M phase cells at 4.5 to 9 uM after 24 hrs by propidium iodidee-based flow cytometry; type: functional; settings: NCI-H1299
# [12] = Cell cycle arrest in human H1299 cells assessed as reduction in G2/M phase cells at 4.5 to 9 uM after 48 hrs by propidium iodidee-based flow cytometry; type: functional; settings: NCI-H1299
# [13] = Cell cycle arrest in human H1299 cells assessed as increase in sub-G1 phase cells at 4.5 to 9 uM after 24 hrs by propidium iodidee-based flow cytometry; type: functional; settings: NCI-H1299
# [14] = Cell cycle arrest in human H1299 cells at 18 uM after 24 hrs by propidium iodidee-based flow cytometry; type: functional; settings: NCI-H1299
# [15] = Cell cycle arrest in human H1299 cells at 18 uM after 48 hrs by propidium iodidee-based flow cytometry; type: functional; settings: NCI-H1299
# Nucleic Acid = assay: Induction of Escherichia coli pEGFP-N1 DNA interstrand cross-linking at 1 to 20 uM after 2 hrs using ethidium bromide staining by alkaline agarose gel shift assay; type: nucleic-acid assay
# CCRF-CEM [16] = assay: Ratio of IC50 for human taxol-resistant CCRF-CEM cells to IC50 for human CCRF-CEM cells; type: functional
# CCRF-CEM [17] = assay: Ratio of IC50 for human vinblastine-resistant CCRF-CEM cells to IC50 for human CCRF-CEM cells; type: functional
# [18] = Toxicity in iv dosed athymic nude mouse assessed as mortality; type: organism-based; settings: in vivo
smiles,measurement,setting,value
CC(C)NC(=O)OCc1c(COC(=O)NC(C)C)c2sc3ccccc3n2c1-c1ccc(Cl)cc1,IC50,CCRF-CEM [1],0.08 µM
same,IC50,CCRF-CEM [2],0.39 µM
same,IC50,CCRF-CEM [3],0.42 µM
same,IC50,MX1 [4],1.19 µM
same,IC50,HCT-116,1.7 µM
same,IC50,[5],8.75 µM
same,IC50,PC-3,13.7 µM
same,IC50,[6],7.54 µM
same,IC50,[7],29 µM
same,Activity,MX1 [8],Active
same,Activity,MX1 [9],Active
same,Activity,MX1 [10],Active
same,Activity,Mus musculus,10%
same,Activity,[11],Active
same,Activity,[12],Active
same,Activity,[13],Active
same,Activity,[14],Active
same,Activity,[15],inactive
same,Activity,Nucleic Acid,Active
same,Ratio IC50,CCRF-CEM [16],4.87
same,Ratio IC50,CCRF-CEM [17],5.25
same,MTD,[18],20 mg/kg
